According to patent publication US11186589B2, “Cyanoindoline derivatives as NIK inhibitors” (Janssen Pharmaceutica NV, priority 2016, dated 2021):
Where two headings read alike, the source gives them in different places.

What was measured:
[1] = system: JJN-3 cells; test: Antiproliferative activity on JJN-3 (NIK translocated) multiple myeloma cells (CellTiter-Glo); format: cell-based, human; settings: JJN-3 (NIK translocated) cells, 96 hr treatment, averaged values, read-out: JJN-3 Proliferation inhibition (IC50 (nM))
Method: (§1) Determination of Antiproliferative Activity on JJN-3 (NIK Translocated) and KMS12-BM (NIK WT) Multiple Myeloma Cells
(§2) All compounds tested were dissolved in DMSO and further dilutions were made in culture medium. Final DMSO concentration was 0.3% (v/v) in cell proliferation assays. Viability was assessed using CellTiter-Glo cell viability assay kit (Promega). The human JJN-3 and KMS12-BM cells (DSMZ) were cultured in RPMI 1640 medium supplemented with 2 mM L-glutamine, and 10% fetal calf serum (PAA). Cells were routinely kept as suspension cells at 37° C. in a humidified 5% CO2 atmosphere. Cells were passaged at a seeding density of 0.2×10^6/ml twice a week. Cells were seeded in black tissue culture treated 96-well plates (Perkin Elmer). Densities used for plating ranged from 15000 (JJN3) to 20000 (KMS12BM) cells per well in a total volume of […]. Drugs and/or solvents were added (15 μl) to a final volume of 150 μl. Following 96 hr of treatment, plates were removed from the incubator and allowed to equilibrate to room temperature for approx 10 min. 75 μl CellTiter-Glo reagent was added to each well that was then covered (Perkin Elmer Topseal) and shaken on plate shaker for 10 min. Luminescence was measured on a HTS Topcount (Perkin Elmer). Within an experiment, the results for each treatment were the mean of 2 replicate wells. For initial screening purposes, compounds were tested using a 9 point dilution curve (serial 1:3 dilutions). For each experiment, controls (containing no drug) and a blank incubation (containing cells read at the time of compound addition) were run in parallel. The blank value was subtracted from all control and sample values. For each sample, the mean value for cell growth (in relative light units) was expressed as a percentage of the mean value for cell growth of the control.

[2] = system: P-IKKα levels in L363 cells; test: Effect of compounds on P-IKKα levels in L363 (NIK translocated multiple myeloma) cells; format: cell-based, human; settings: 2 hr treatment, averaged values, read-out: Inhibition of pIKKα_L-363 (IC50 (nM))
Method: Effect of Compounds on P-IKKα Levels in L363 (NIK Translocated Multiple Myeloma) Cells
All compounds tested were dissolved in DMSO and further dilutions were made in culture medium. Final DMSO concentration was 1% (v/v) in cell assays. The human L363 cells (ATCC) were cultured in RPMI 1640 medium supplemented with GlutaMax and 10% fetal calf serum (PAA). Cells were routinely maintained at densities of 0.2×10^6 cells per ml—1×10^6 cells per ml at 37° C. in a humidified 5% CO2 atmosphere. Cells were passaged twice a week splitting back to obtain the low density. Cells were seeded in 96 well plates (Nunc 167008) at 2×10^6 per ml media in a volume of 75 μl per well plus 25 μl 1 μg/ml recombinant human B-cell activating factor (BAFF/BLyS/TNFSF13B). Seeded cells were incubated at 37° C. in a humidified 5% CO2 atmosphere for 24 hr. Drugs and/or solvents were added (20 μl) to a final volume of 120 μl. Following 2 hr treatment plates were removed from the incubator and cell lysis was achieved by the addition of 30 μl 5× lysis buffer followed by shaking on a plate shaker at 4° C. for 10 min. At the end of this incubation lysed cells were centrifuged at 800×g for 20 min at 4° C. and the lysate was assessed for P-IKKα levels by sandwich immuno-assay carried out in anti-rabbit antibody coated Mesoscale plates. Within an experiment, the results for each treatment were the mean of 2 replicate wells. For initial screening purposes, compounds were tested using an 8 point dilution curve (serial 1:3 dilutions). For each experiment, controls (containing MG132 and BAFF but no test drug) and a blank incubation (containing MG132 and BAFF and 10 μM ADS125117, a test concentration known to give full inhibition) were run in parallel. The blank incubation value was subtracted from all control and sample values. To determine the IC50 a sigmoidal curve was fitted to the plot of % inhibition of control P-IKKα levels versus Log10 compound concentration.

[3] = system: KMS12-BM cells; test: Antiproliferative activity on KMS12-BM (NIK WT) multiple myeloma cells (CellTiter-Glo); format: cell-based, human; settings: 96 hr treatment, averaged values, read-out: KMS-12 Proliferation inhibition (IC50 (nM))
Method: as §1, §2

[4] = target: NIK/MAP3K14 (Homo sapiens (Human), UniProt Q99558); test: Inhibition of auto-phosphorylation of recombinant human NF-kappaB-inducing kinase (NIK/MAP3K14) activity (AlphaScreen); format: biochemical; settings: averaged values over all measurements on all batches, 25 microM ATP
NIK/MAP3K14, sequence (Q99558 whole entry): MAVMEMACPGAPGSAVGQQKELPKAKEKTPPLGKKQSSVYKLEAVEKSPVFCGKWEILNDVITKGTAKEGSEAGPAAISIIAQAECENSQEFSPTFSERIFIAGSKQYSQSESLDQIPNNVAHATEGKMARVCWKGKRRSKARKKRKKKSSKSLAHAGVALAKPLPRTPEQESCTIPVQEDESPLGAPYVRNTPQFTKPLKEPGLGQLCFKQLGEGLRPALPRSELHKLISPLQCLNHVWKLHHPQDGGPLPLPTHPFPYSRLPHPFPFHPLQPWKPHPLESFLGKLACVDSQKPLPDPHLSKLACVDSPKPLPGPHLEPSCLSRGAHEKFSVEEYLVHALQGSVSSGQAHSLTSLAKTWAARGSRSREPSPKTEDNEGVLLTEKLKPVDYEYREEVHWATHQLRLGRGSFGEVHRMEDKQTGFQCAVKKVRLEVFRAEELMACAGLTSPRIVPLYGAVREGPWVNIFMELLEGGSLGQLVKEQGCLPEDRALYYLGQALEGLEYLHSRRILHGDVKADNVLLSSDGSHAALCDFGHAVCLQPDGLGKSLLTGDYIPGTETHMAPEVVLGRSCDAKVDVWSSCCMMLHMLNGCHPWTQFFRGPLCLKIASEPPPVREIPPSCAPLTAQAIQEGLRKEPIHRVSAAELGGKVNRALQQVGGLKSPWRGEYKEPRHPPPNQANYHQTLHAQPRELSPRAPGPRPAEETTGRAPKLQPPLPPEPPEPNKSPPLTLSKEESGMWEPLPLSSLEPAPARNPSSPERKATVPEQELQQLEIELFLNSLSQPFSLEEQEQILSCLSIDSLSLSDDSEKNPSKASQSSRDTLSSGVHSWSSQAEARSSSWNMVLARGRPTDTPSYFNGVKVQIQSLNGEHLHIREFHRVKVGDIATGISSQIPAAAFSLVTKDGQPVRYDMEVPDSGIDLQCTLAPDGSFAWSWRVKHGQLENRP
Method: Inhibition of Auto-Phosphorylation of Recombinant Human NF-kappaB-Inducing Kinase ([…]) Activity (AlphaScreen®)
NIK/MAP3K14 auto-phosphorylation activity was measured using the AlphaScreen® (αscreen) format (Perkin Elmer). All compounds tested were dissolved in dimethyl sulfoxide (DMSO) and further dilutions were made in assay buffer. Final DMSO concentration was […] in assays. Assay buffer was 50 mM Tris pH 7.5 containing 1 mM EGTA (ethylene glycol tetraacetic acid), 1 mM DTT (dithiothreitol), 0.1 mM Na3VO4, 5 mM MgCl2, 0.01% Tween® 20. Assays were carried out in 384 well Alphaplates (Perkin Elmer). Incubations consisted of compound, 25 microM Adenosine-5′-triphosphate (ATP), and 0.2 nM NIK/MAP3K14. Incubations were initiated by addition of GST-tagged NIK/MAP3K14 enzyme, carried out for 1 h at 25° C. and terminated by addition of stop buffer containing anti-phospho-[…] Ser176/180 antibody. Protein A Acceptor and Glutathione-Donor beads were added before reading using an EnVision® Multilabel Plate Reader (Perkin Elmer). Signal obtained in the wells containing blank samples was subtracted from all other wells and IC50's were determined by fitting a sigmoidal curve to % inhibition of control versus Log10 compound concentration.

SMILES	IC50 ([1]; Homo sapiens, JJN-3, 96 h) [nM]	IC50 ([2]; Homo sapiens, L-363, 2 h) [nM]	IC50 ([3]; Homo sapiens, KMS-12-BM, 96 h) [nM]	IC50 [4] [nM]	IC50 [2] [nM]	IC50 [3] [nM]	IC50 [1] [nM]
CN1CCc2cc(CCC3CC3)c(Nc3nccc(-c4cc(C#N)c5c(c4)[C@@](C)(CO)CN5)n3)cc2CC1 (mixture of isomers) [Compound 26]	692	501	~525	5.1			
CCCCCc1cc2c(cc1Nc1nccc(-c3cc(C#N)c4c(c3)[C@@](C)(CO)CN4)n1)CCN(C)CC2 (mixture of isomers) [Compound 27]	871	~1200	1380	7.1			
CC1(CO)COc2c(Nc3nccc(-c4cc(C#N)c5c(c4)[C@@](C)(CO)CN5)n3)cnn2C1 (mixture of isomers) [Compound 31b]	~2140	63	~7760	5			
CC1CC(C)n2ncc(Nc3nccc(-c4cc(C#N)c5c(c4)C(C)(CO)CN5)n3)c2O1 (racemic) [Compound 21b]	269		2510	5.9	5		
CC1CCn2ncc(Nc3nccc(-c4cc(C#N)c5c(c4)[C@@](C)(CO)CN5)n3)c2O1 (single isomer, unassigned) [Compound 1b]	58	2		2.8		~2820	
CC1CCn2ncc(Nc3nccc(-c4cc(C#N)c5c(c4)[C@@](C)(CO)CN5)n3)c2O1 (single isomer, unassigned) [Compound 2b]				2	4	> 10000	93
CC(C)C1CCn2ncc(Nc3nccc(-c4cc(C#N)c5c(c4)[C@@](C)(CO)CN5)n3)c2O1 (single isomer, unassigned) [Compound 22b]		3		7.1		> 10000	166
CC(C)C1CCn2ncc(Nc3nccc(-c4cc(C#N)c5c(c4)[C@@](C)(CO)CN5)n3)c2O1 (single isomer, unassigned) [Compound 23b]				6.9	2	~2240	45
CC1CCCn2ncc(Nc3nccc(-c4cc(C#N)c5c(c4)[C@@](C)(CO)CN5)n3)c2O1 (single isomer, unassigned) [Compound 29b]			> 10000	3.9	6		85
CC1CCCn2ncc(Nc3nccc(-c4cc(C#N)c5c(c4)[C@@](C)(CO)CN5)n3)c2O1 (single isomer, unassigned) [Compound 30b]				5.2	13	> 10000	263
CNC(=O)CCn1ccc2c(Nc3nccc(-c4cc(C#N)c5c(c4)C(C)(C)CN5)n3)cc(Cl)cc21 [Compound 1c]	26	23	1380	30.2			
CC(C)(O)Cn1ccc2c(Nc3nccc(-c4cc(C#N)c5c(c4)C(C)(C)CN5)n3)cc(Cl)cc21 [Compound 2c]	123	78	~6030	87.1			
CN1CCn2ncc(Nc3nccc(-c4cc(C#N)c5c(c4)[C@@](C)(CO)CN5)n3)c2C1=O [Compound 3b]	91	3	> 10000	1			
C[C@]1(CO)CNc2c(C#N)cc(-c3ccnc(Nc4cnn5c4COCC5)n3)cc21 [Compound 12b]	251	4	~549	1.5			
CN1CCn2nc(Nc3nccc(-c4cc(C#N)c5c(c4)[C@@](C)(CO)CN5)n3)cc2C1=O [Compound 13b]	457	29	~1860	2			
C[C@]1(CO)CNc2c(C#N)cc(-c3ccnc(Nc4cnn5c4OCCC5)n3)cc21 [Compound 14b]	155	6	3980	2			
CN1CCn2ncc(Nc3nccc(-c4cc(C#N)c5c(c4)[C@@](C)(CO)CN5)n3)c2C1 [Compound 15b]	200	11	~4470	3.5			
CC(C)N1CCn2ncc(Nc3nccc(-c4cc(C#N)c5c(c4)[C@@](C)(CO)CN5)n3)c2C1=O [Compound 17b]	309	3	> 10000	3			
CN(C)C1COc2c(cc(Cl)cc2Nc2nccc(-c3cc(C#N)c4c(c3)[C@@](C)(CO)CN4)n2)C1 (stereo partly shown) [Compound 18]		16		4.1		9	1
CC(C)N1CCn2ncc(Nc3nccc(-c4cc(C#N)c5c(c4)[C@@](C)(CO)CN5)n3)c2C1 [Compound 18b]	288	7	~5500	6.2			
COC[C@@H]1Cn2ncc(Nc3nccc(-c4cc(C#N)c5c(c4)[C@@](C)(CO)CN5)n3)c2O1 [Compound 19b]	316	19	~5500	11.7			
C[C@]1(CO)CNc2c(C#N)cc(-c3ccnc(Nc4cc5c(nc4CCC4CC4)CCOC5)n3)cc21 [Compound 21]	81	21	3890	3			
Cc1cc2c(cc1Nc1nccc(-c3cc(C#N)c4c(c3)[C@@](C)(CO)CN4)n1)CCN(C)CC2 [Compound 23]	162	~79	~550	4.8			
COc1cc2c(cc1Nc1nccc(-c3cc(C#N)c4c(c3)[C@@](C)(CO)CN4)n1)CCN(C)CC2 [Compound 24]	~214	~74	~288	3			
CC1(C)CCOc2c(Nc3nccc(-c4cc(C#N)c5c(c4)[C@@](C)(CO)CN5)n3)cnn21 [Compound 24b]	676	28	~5890	4.9			
COc1nc2c(cc1Nc1nccc(-c3cc(C#N)c4c(c3)[C@@](C)(CO)CN4)n1)CCN(C)C2 [Compound 53]	12	1	~468				
CN1CCc2ncc(Nc3ncc(F)c(-c4cc(C#N)c5c(c4)[C@@](C)(CO)CN5)n3)cc2C1 [Compound 54]	~7	2	~9				
